For series [1], the target named is T1, porcine DPP-IV (Sus scrofa, UniProt P22411). In words: Stability of peptides to hydrolysis by DPP-IV (LC-MS/MS). The settings on record: for Hydrolysis by DPP-IV (stability), in words: 30 min incubation with DPP-IV; for Peptide hydrolyzed by DPP-IV: peptide at 1/4 of IC50, 30 min at 37°C, Tris-HCl buffer pH 8.0.
Experimental: Stability of the peptides to hydrolysis by DPP-IV was evaluated by liquid chromatography tandem mass spectrometry (LC-MS/MS) using the samples generated during the Lineweaver and Burk analysis containing DPP-IV inhibitory peptides at their IC50 values divided by 4 as previously described ([24]). Following the 30 min reaction, DPP-IV was heat inactivated by immersing samples in a water bath set at 90°C for 20 min. Test samples were subsequently diluted 40 times in mobile phase A (0.1% FA in MS water). Intact peptides were analyzed at the same concentration as the test samples. The peptide composition of the samples was determined as described previously ([25]). Briefly, an ultra-high performance liquid chromatography (UHPLC) UltiMate 3000 (Dionex, Camberley, Surrey, UK) fitted with a security guard UHPLC C18 PEPTIDE (2.1 mm, Phenomenex, Cheshire, UK) and an Aeris Peptide XB-C18 column (150 mm × 2.1 mm, 1.7 µm, Phenomenex) was used for peptide separation at 25°C. A sample volume of 2 µL was injected with a solvent delay of 4 min. The UHPLC was coupled to a quadrupole time-of-flight mass spectrometer (Q-TOF, Impact HD™, Bruker Daltonics GmbH, Bremen, Germany) using a 50–600 m/z acquisition range. The MS was fitted with an electrospray ionization source used in positive ion mode. Data acquisition was performed with Hystar software (Bruker Daltonics). Data analysis was performed with Compass Data Analysis 4.2 (Bruker Daltonics).
For series [2], the target named is T1, porcine DPP-IV. Briefly: DPP-IV inhibition assay with Gly-Pro-pNA substrate. The settings on record: for IC50: porcine DPP-IV, Gly-Pro-pNA 0.200 mM, 37°C, n = 3, read-out: Experimental DPP-IV IC50. Further details: purchased Sigma Aldrich (Dublin, Ireland). The series is classed as biochemical. The protocol: Peptides were dispersed in HPLC grade water at 50 and 500 µM (final concentration). The DPP-IV inhibition assay was carried out in triplicate as outlined by Nongonierma and FitzGerald ([18]). Briefly, samples (25 μL) were mixed with Gly-Pro-pNA (final concentration 0.200 mM) and DPP-IV (final concentration 0.0025 U mL^−1) in a 96-well microplate (Sarstedt, Dublin, Ireland). The microplate was incubated at 37°C for 60 min in a microplate reader (Biotek Synergy HT, Winooski, VT, USA) and absorbance was monitored at 405 nm.
Dose–response curves were determined for peptides displaying a percentage of inhibition > 50% at 500 µM. Peptides were diluted in HPLC water at concentrations ranging from 0.37 to 500 µM (final concentration). The DPP-IV IC50 values were determined by plotting the percentage inhibition as a function of the test compound concentration. Each analysis was carried out in triplicate (n = 3).

For series [3], the system named is DPP-IV. Further details: method as in PMID 1671823. The settings on record: after 36 min incubation; ref [47]; cited from earlier work.
Series [4] deals with DPP-IV. The conditions noted are these: competitive inhibitory peptides used in QSAR model, cited from earlier work.
The conditions of series [5]: cited from earlier work.
Series [6] has as its target human dipeptidyl peptidase IV. Further details: method as in PMID 24512990. The conditions noted are these: most potent peptide of Trp-Arg-Xaa library; ref [14]; read-out: DPP-IV IC50; cited from earlier work.
The subject of series [7] is DPP-IV. The conditions noted are these: cited from earlier work.

Where two headings read alike, the source gives them in different places. Residues, ends and D or L forms follow the SMILES beside them.

T1 sequence (P22411 whole entry): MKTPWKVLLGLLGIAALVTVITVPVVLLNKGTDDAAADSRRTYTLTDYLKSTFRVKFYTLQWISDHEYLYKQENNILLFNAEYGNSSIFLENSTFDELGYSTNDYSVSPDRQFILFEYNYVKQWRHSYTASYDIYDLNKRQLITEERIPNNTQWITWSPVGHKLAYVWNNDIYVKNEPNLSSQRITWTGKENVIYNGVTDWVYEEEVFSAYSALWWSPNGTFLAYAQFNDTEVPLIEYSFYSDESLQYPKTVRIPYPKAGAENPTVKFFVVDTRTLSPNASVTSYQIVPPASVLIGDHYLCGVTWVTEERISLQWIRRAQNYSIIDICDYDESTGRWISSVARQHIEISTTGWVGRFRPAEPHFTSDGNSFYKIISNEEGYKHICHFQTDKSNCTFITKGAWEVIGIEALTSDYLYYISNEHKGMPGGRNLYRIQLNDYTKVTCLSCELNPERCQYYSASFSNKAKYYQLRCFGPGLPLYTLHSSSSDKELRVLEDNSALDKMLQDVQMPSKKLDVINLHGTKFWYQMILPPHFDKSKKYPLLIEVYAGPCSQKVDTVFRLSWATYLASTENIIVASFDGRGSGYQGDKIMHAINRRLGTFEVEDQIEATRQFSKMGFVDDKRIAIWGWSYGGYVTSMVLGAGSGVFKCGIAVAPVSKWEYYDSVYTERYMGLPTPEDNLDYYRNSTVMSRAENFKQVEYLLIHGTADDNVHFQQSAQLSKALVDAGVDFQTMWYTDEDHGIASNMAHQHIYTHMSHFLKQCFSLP

`C[C@H](N)C(=O)N1CCC[C@H]1C(=O)N[C@@H](C)C(=O)O` [APA, Ala-Pro-Ala] (H-Ala-Pro-Ala-OH; N-terminus and C-terminus assumed): on porcine DPP-IV [1], the “Hydrolysis by DPP-IV (stability), in words” value (shortened to “Hydrolysis by DPP-IV”) is recorded as “not hydrolyzed by DPP-IV” and the “Peptide hydrolyzed by DPP-IV” value is “NO”. At porcine DPP-IV [2] (peptide at 500 µM), the inhibition (commonly how much of the control response was suppressed) at 500 µM is over 65%. At porcine DPP-IV [2], the IC50 (commonly the concentration that inhibits the measured activity by half) worked out at 44.3 ± 3.2 µM.
For the compound `C[C@H](N)C(=O)N1CCC[C@H]1C(=O)N[C@@H](Cc1ccccc1)C(=O)O` [APF, Ala-Pro-Phe] (H-Ala-Pro-Phe-OH; N-terminus and C-terminus assumed), at porcine DPP-IV [1], the “Hydrolysis by DPP-IV” value was “not hydrolyzed by DPP-IV” and the “Peptide hydrolyzed by DPP-IV” value was “NO”. The inhibition at 500 µM at porcine DPP-IV [2] (peptide at 500 µM) is over 65%. Moreover, at porcine DPP-IV [2], the IC50 was 65.8 ± 5.5 µM.
The matching figures for `C[C@H](N)C(=O)N1CCC[C@H]1C(=O)N[C@@H](CCCNC(=N)N)C(=O)O` [APR, Ala-Pro-Arg] (H-Ala-Pro-Arg-OH; N-terminus and C-terminus assumed): “not hydrolyzed by DPP-IV”, “NO”, over 65% and 120 ± 3.5 µM.
In the case of `N[C@@H](Cc1ccccc1)C(=O)N1CCC[C@H]1C(=O)N[C@@H](Cc1ccccc1)C(=O)O` [FPF, Phe-Pro-Phe] (H-Phe-Pro-Phe-OH; N-terminus and C-terminus assumed), at porcine DPP-IV [1], the “Hydrolysis by DPP-IV” value is “partly hydrolyzed by DPP-IV” and the “Peptide hydrolyzed by DPP-IV” value is reported as “YES”. For the same compound, the inhibition at 500 µM at porcine DPP-IV [2] (peptide at 500 µM) was 62.9 ± 10.1%. Besides, the IC50 at porcine DPP-IV [2] was 247 ± 32.7 µM.
Regarding `N[C@@H](Cc1ccccc1)C(=O)N1CCC[C@H]1C(=O)N[C@@H](Cc1c[nH]c2ccccc12)C(=O)O` [FPW, Phe-Pro-Trp] (H-Phe-Pro-Trp-OH; N-terminus and C-terminus assumed), at porcine DPP-IV [1], the “Hydrolysis by DPP-IV” value is “partly hydrolyzed by DPP-IV” and the “Peptide hydrolyzed by DPP-IV” value is “YES”. Besides, the IC50 at porcine DPP-IV [2] stood at 54.9 ± 2.9 µM.
Turning to `CC[C@H](C)[C@H](N)C(=O)N[C@@H](C)C(=O)N[C@H](C(=O)O)[C@@H](C)CC` [IAI, Ile-Ala-Ile] (H-Ile-Ala-Ile-OH; N-terminus and C-terminus assumed), at porcine DPP-IV [2] (peptide at 500 µM), the inhibition at 500 µM was 9.6 ± 1.9%. For the same compound, the “% DPP-IV inhibition” value on porcine DPP-IV [2] (peptide at 500 µM, 500 µM) is under 10%.
Consider `CC[C@H](C)[C@H](N)C(=O)N1CCC[C@H]1C(=O)N[C@@H](C)C(=O)O` [IPA, Ile-Pro-Ala] (H-Ile-Pro-Ala-OH; N-terminus and C-terminus assumed), for which, at porcine DPP-IV [1], the “Hydrolysis by DPP-IV” value is “not hydrolyzed by DPP-IV” and the “Peptide hydrolyzed by DPP-IV” value is reported as “NO”. Moreover, the inhibition at 500 µM on porcine DPP-IV [2] (peptide at 500 µM) is over 65%. For the same compound, on porcine DPP-IV [2], the IC50 was 28.3 ± 3.4 µM.
For the compound `CC[C@H](C)[C@H](N)C(=O)N1CCC[C@H]1C(=O)N[C@@H](Cc1ccccc1)C(=O)O` [IPF, Ile-Pro-Phe] (H-Ile-Pro-Phe-OH; N-terminus and C-terminus assumed), at porcine DPP-IV [1], the “Hydrolysis by DPP-IV” value is “partly hydrolyzed by DPP-IV” and the “Peptide hydrolyzed by DPP-IV” value is recorded as “YES”. Also, the IC50 on porcine DPP-IV [2] came to 47.3 ± 12.3 µM.
Consider `CC[C@H](C)[C@H](N)C(=O)N1CCC[C@H]1C(=O)N[C@H](C(=O)O)[C@@H](C)CC` [IPI, Ile-Pro-Ile], for which the inhibition at 500 µM at porcine DPP-IV [2] (peptide at 500 µM) is over 65%. In addition, in the series with DPP-IV [3], the “initial amount cleaved by DPP-IV” value is reported as 37%.
For the compound `CC[C@H](C)[C@H](N)C(=O)N1CCC[C@H]1C(=O)N[C@@H](Cc1c[nH]c2ccccc12)C(=O)O` [IPW, Ile-Pro-Trp] (H-Ile-Pro-Trp-OH; N-terminus and C-terminus assumed), on porcine DPP-IV [1], the “Hydrolysis by DPP-IV” value is “partly hydrolyzed by DPP-IV” and the “Peptide hydrolyzed by DPP-IV” value is “YES”. Besides, the IC50 on porcine DPP-IV [2] was 175 ± 5.5 µM.
For the compound `CC[C@H](C)[C@H](N)C(=O)N[C@@H](CCCNC(=N)N)C(=O)N[C@@H](Cc1ccccc1)C(=O)O` [IRF, Ile-Arg-Phe] (H-Ile-Arg-Phe-OH; N-terminus and C-terminus assumed), the inhibition at 500 µM on porcine DPP-IV [2] (peptide at 500 µM) is under 25%.
Take `CC[C@H](C)[C@H](N)C(=O)N[C@@H](CCCNC(=N)N)C(=O)N[C@@H](CCCCN)C(=O)O` [IRK, Ile-Arg-Lys] (H-Ile-Arg-Lys-OH; N-terminus and C-terminus assumed): on porcine DPP-IV [2] (peptide at 500 µM), the inhibition at 500 µM is under 25%.
For `C[C@H](NC(=O)[C@@H]1CCCN1C(=O)[C@@H](N)CCCCN)C(=O)O` [KPA, Lys-Pro-Ala] (H-Lys-Pro-Ala-OH; N-terminus and C-terminus assumed), on porcine DPP-IV [1], the “Hydrolysis by DPP-IV” value was “not hydrolyzed by DPP-IV” and the “Peptide hydrolyzed by DPP-IV” value is given as “NO”. Also, the inhibition at 500 µM at porcine DPP-IV [2] (peptide at 500 µM) was over 65%. For the same compound, the IC50 on porcine DPP-IV [2] is 74.5 ± 7 µM.
Turning to `N=C(N)NCCC[C@H](NC(=O)[C@H](CCCCN)NC(=O)[C@@H](N)CCCNC(=N)N)C(=O)O` [RKR, Arg-Lys-Arg] (H-Arg-Lys-Arg-OH; N-terminus and C-terminus assumed), the inhibition at 500 µM at porcine DPP-IV [2] (peptide at 500 µM) is under 25%.
As for `N[C@@H](Cc1c[nH]c2ccccc12)C(=O)N1CCC[C@H]1C(=O)N[C@@H](Cc1ccccc1)C(=O)O` [WPF, Trp-Pro-Phe] (H-Trp-Pro-Phe-OH; N-terminus and C-terminus assumed), on porcine DPP-IV [1], the “Hydrolysis by DPP-IV” value is “partly hydrolyzed by DPP-IV” and the “Peptide hydrolyzed by DPP-IV” value is “YES”. Moreover, at porcine DPP-IV [2], the IC50 was 160 ± 12.8 µM.
As to `N[C@@H](Cc1c[nH]c2ccccc12)C(=O)N1CCC[C@H]1C(=O)N[C@@H](Cc1c[nH]c2ccccc12)C(=O)O` [WPW, Trp-Pro-Trp] (H-Trp-Pro-Trp-OH; N-terminus and C-terminus assumed), at porcine DPP-IV [1], the “Hydrolysis by DPP-IV” value is “partly hydrolyzed by DPP-IV” and the “Peptide hydrolyzed by DPP-IV” value is “YES”. For the same compound, at porcine DPP-IV [2], the IC50 is 120 ± 13.1 µM.
As for Glu-Lys [EK], in the series on DPP-IV [4] (ref [18]), the concentration for half-maximal inhibition (IC50) was 3220 µM.
For the compound IPIQY, the IC50 in the series with DPP-IV [4] (ref [21]) is 35.2 µM.
Regarding Ile-Pro-Pro, the “Identification in human sera” value in series [5] (following ingestion of a milk beverage enriched in lactotripeptides, ref [39]) was “identified in human sera”.
LLQLEAIR: the IC50 in the series on DPP-IV [4] (ref [24]) is 178 µM.
For LPLPL, the IC50 in the series on DPP-IV [4] (ref [21]) is 325 µM.
Take LPQNIPPLT: the IC50 with DPP-IV [4] (ref [17]) was 205 µM.
Regarding LPVP, the concentration for half-maximal inhibition (IC50) in the series with DPP-IV [4] (ref [24]) is 87 µM.
Regarding LPVPQ, in the series with DPP-IV [4] (ref [17]), the IC50 was 43.7 µM.
For LPYPY, the IC50 in the series on DPP-IV [4] (ref [21]) is 108 µM.
As to MPVQA, the IC50 in the series with DPP-IV [4] (ref [24]) was 93.3 µM.
For Trp-Arg-Glu, the IC50 in series [6] was 350 µM.
VPGEIVE: in the series on DPP-IV [4] (ref [17]), the IC50 was 224 µM.
On to Val-Pro-Leu [VPL], for which the “times more potent than other food protein-derived peptides” value with DPP-IV [7] (DPP-IV inhibition, ref [5]) was over 2 times. In the series on DPP-IV [7] (Table S1, ref (2,3) of supplement), the Mode of inhibition result is listed as “competitive”. Besides, the IC50 in the series on DPP-IV [7] (ref [8]) is 15.8 µM.
For Val-Pro-Pro, in series [5] (in vivo), the “Identification in human sera” value is recorded as “identified in human sera”.

These data come from publication PMC6010526, “In Silico Approaches Applied to the Study of Peptide Analogs of Ile-Pro-Ile in Relation to Their Dipeptidyl Peptidase IV Inhibitory Properties” (Frontiers in Endocrinology, 2018).
